From the supplement of paper PMC6411743 come the findings set out here.
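Note: lysate dosed with Na-ATP at 0 0.005 0.05 0.5 and 2 mM.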

UniProt Q6ZUM4, sequence (Q6ZUM4 whole entry): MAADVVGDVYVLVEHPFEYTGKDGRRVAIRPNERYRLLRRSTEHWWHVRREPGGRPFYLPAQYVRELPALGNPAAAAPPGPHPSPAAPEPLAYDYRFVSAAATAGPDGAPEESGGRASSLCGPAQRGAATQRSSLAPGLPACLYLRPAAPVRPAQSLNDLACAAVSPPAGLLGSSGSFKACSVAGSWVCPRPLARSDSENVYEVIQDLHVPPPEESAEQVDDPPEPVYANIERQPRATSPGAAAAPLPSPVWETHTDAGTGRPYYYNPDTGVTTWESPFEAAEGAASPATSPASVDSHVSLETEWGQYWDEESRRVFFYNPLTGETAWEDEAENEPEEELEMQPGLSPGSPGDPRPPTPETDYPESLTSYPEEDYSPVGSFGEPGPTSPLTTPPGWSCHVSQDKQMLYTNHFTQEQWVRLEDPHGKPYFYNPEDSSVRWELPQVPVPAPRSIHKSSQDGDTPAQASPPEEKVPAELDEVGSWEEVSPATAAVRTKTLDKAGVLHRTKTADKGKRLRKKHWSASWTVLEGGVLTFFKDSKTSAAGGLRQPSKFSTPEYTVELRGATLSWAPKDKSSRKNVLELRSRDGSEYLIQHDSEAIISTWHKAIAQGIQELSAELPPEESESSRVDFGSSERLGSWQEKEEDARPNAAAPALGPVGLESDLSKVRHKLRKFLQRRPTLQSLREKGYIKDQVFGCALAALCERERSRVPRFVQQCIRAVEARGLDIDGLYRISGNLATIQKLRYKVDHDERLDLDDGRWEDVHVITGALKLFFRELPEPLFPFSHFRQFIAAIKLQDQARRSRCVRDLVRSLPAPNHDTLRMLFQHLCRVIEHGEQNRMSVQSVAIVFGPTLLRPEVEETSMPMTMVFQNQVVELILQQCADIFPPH
UniProt P49841, sequence (P49841 whole entry, looked up): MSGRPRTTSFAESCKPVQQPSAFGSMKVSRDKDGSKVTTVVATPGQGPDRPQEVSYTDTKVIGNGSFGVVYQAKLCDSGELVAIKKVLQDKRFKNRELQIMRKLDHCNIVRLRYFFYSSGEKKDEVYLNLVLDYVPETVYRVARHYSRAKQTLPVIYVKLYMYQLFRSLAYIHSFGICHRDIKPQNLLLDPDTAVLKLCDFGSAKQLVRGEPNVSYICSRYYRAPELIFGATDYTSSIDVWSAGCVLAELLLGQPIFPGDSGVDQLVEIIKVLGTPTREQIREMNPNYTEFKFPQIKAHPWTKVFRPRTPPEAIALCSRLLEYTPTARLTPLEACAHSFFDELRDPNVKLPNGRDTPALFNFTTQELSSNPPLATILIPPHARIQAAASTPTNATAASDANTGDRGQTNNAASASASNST
UniProt P61956, sequence (P61956 whole entry): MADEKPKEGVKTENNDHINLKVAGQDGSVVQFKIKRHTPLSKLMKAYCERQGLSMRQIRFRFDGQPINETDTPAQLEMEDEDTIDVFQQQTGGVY
UniProt Q8TBX8, sequence (Q8TBX8 whole entry): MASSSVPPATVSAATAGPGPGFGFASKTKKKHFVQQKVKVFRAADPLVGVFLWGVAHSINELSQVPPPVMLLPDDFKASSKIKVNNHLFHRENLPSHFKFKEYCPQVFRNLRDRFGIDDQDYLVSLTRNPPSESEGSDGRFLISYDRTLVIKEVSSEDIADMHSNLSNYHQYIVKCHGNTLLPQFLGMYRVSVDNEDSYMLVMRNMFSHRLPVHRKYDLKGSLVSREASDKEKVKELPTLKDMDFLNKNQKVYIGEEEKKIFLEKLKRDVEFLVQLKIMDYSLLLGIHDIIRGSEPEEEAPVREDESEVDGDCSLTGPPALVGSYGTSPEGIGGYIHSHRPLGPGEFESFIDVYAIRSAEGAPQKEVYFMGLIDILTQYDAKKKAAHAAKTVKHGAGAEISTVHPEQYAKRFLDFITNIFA
UniProt O95319, sequence (O95319 whole entry): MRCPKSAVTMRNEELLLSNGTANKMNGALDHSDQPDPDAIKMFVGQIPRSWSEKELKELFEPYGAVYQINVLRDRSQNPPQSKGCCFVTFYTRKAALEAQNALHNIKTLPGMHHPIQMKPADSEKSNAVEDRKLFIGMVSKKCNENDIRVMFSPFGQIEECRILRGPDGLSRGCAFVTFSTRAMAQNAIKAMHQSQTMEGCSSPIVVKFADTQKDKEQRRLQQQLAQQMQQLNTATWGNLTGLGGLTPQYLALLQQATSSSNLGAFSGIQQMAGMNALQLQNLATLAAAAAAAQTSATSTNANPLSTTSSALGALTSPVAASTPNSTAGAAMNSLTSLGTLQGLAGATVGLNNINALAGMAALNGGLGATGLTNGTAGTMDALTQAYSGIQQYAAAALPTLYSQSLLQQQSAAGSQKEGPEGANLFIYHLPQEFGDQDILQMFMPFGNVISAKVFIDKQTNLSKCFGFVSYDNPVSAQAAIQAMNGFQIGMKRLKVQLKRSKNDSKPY
UniProt P35626, sequence (P35626 whole entry): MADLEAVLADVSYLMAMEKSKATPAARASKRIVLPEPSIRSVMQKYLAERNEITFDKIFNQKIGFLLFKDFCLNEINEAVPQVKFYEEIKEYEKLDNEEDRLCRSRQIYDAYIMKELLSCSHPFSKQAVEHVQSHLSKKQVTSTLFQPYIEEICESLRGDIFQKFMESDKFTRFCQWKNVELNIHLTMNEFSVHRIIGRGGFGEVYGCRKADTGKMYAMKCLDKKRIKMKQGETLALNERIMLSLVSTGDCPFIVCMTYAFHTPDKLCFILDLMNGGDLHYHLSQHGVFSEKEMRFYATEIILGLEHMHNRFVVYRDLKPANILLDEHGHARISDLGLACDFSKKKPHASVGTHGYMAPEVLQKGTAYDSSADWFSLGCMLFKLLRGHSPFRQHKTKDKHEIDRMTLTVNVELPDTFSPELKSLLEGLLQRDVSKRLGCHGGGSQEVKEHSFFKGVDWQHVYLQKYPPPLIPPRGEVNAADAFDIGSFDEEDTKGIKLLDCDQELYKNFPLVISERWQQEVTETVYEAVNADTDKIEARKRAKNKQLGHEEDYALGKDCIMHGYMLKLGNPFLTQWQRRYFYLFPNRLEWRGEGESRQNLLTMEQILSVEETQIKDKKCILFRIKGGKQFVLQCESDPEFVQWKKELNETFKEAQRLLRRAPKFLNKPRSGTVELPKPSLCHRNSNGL
UniProt Q8N2M8, sequence (Q8N2M8 whole entry): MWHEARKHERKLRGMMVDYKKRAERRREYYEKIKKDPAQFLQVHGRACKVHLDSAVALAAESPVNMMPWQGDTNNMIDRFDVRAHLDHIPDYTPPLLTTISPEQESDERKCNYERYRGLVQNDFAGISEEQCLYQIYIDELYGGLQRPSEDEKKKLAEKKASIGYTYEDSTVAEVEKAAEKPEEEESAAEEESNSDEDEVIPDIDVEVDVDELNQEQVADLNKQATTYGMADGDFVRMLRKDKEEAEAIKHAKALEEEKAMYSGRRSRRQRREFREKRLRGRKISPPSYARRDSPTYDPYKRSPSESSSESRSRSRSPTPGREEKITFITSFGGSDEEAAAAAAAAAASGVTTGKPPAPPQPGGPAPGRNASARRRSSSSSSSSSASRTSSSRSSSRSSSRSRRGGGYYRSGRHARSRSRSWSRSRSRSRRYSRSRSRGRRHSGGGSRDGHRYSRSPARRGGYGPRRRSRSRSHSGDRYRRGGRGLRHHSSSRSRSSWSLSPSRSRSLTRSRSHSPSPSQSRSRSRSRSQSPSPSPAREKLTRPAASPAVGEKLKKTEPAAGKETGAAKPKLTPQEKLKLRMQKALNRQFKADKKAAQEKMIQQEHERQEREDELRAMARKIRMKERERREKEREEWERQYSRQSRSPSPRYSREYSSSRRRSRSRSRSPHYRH
UniProt Q9UH99, sequence (Q9UH99 whole entry): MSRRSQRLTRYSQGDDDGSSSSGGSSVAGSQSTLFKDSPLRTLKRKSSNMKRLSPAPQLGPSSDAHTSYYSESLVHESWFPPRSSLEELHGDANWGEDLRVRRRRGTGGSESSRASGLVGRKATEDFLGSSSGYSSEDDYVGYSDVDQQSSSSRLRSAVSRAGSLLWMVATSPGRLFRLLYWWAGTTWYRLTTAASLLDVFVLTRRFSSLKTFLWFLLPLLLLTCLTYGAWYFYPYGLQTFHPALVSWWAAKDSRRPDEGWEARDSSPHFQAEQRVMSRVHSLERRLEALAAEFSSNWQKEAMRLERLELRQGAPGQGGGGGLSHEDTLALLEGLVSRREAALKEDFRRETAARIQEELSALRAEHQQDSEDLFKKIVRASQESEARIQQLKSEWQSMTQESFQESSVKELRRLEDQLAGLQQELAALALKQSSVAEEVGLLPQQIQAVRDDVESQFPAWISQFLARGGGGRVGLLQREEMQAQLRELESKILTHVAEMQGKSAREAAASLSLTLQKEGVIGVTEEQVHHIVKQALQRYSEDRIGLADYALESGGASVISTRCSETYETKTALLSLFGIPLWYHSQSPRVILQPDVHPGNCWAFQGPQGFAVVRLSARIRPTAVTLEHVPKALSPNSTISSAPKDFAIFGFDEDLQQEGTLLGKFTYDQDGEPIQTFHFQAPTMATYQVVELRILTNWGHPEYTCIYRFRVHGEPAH
UniProt Q8WYJ6, sequence (Q8WYJ6 whole entry): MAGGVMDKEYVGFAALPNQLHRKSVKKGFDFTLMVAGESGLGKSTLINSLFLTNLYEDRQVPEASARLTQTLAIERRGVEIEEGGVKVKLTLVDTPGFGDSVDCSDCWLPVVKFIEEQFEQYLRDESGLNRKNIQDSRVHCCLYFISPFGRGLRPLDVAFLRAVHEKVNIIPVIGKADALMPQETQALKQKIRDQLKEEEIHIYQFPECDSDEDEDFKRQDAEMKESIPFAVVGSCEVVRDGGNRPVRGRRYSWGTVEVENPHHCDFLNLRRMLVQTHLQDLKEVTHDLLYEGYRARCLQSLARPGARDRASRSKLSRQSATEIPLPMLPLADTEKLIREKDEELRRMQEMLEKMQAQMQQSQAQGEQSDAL
UniProt P62308, sequence (P62308 whole entry): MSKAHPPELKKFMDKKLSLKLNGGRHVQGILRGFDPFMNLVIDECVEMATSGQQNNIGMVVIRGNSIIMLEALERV

Compound in this assay: Nc1ncnc2c1ncn2[C@@H]1O[C@H](COP(=O)(O)OP(=O)(O)OP(=O)(O)O)[C@@H](O)[C@H]1O [adenosine triphosphate]
Briefly: pEC50 of ATP-induced change in protein thermal stability (2D-TPP). A digest of the protocol: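 Crude Jurkat lysate was exposed to five concentrations, vehicle among them, for 10 min at room temperature, then heated for 3 min at 12 temperatures between 42 and 63.9 °C and treated with NP40 and benzonase for 60 min at 4 °C. Soluble protein remaining after ultracentrifugation was measured by TMT LC-MS/MS, and fold changes relative to vehicle at each temperature were median-normalised. pEC50 values come from dose-response fits made per replicate across adjacent temperature pairs, with hits called under permutation-based false discovery rate control. Three independent experiments were run.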
Turning to “UniProt O75521 (effect direction: stabilized)”, the pEC50 was below 2.7.
As to “UniProt O94826 (effect direction: stabilized)”, the pEC50 was 3.14.
Under “UniProt O95071 (effect direction: stabilized)” stands 3.27.
Consider “UniProt O95319 (effect direction: stabilized)”, for which the pEC50 is below 2.7.
Take “UniProt O96017 (effect direction: stabilized)”: the pEC50 was 3.33.
In the case of “UniProt P0C0S5 (effect direction: stabilized)”, the negative-log EC50 (pEC50) was 2.96.
As to “UniProt P0C0S8 (effect direction: stabilized)”, the pEC50 was 2.92.
Under “UniProt P0DMV8 (effect direction: stabilized)” stands 3.72; under “UniProt P04350 (effect direction: stabilized)”, 3.07.
Next, “UniProt P06493 (effect direction: stabilized)”: 2.93; “UniProt P14618 (effect direction: destabilized)”: 2.87; “UniProt P23443 (effect direction: stabilized)”: 3.7.
Next, “UniProt P24539 (effect direction: stabilized)”: 4.02; “UniProt P24928 (effect direction: destabilized)”: 3.32; “UniProt P25098 (effect direction: stabilized)”: 3.38.
“UniProt P26639 (effect direction: stabilized)”: the pEC50 was below 2.7.
“UniProt P27361 (effect direction: stabilized)”: the pEC50 was determined as 3.54.
Take “UniProt P28482 (effect direction: stabilized)”: the pEC50 was 3.16.
On to “UniProt P35626 (effect direction: stabilized)”, for which the pEC50 amounted to 3.31.
Consider “UniProt P36507 (effect direction: stabilized)”, for which the pEC50 was determined as 3.55.
Turning to “UniProt P42285 (effect direction: stabilized)”, the pEC50 was below 2.7.
Next, “UniProt P45984 (effect direction: stabilized)”: 3.14.
Turning to “UniProt P48729 (effect direction: stabilized)”, the pEC50 is 3.3.
Under “UniProt P49591 (effect direction: stabilized)” stands below 2.7; under “UniProt P49841 (effect direction: stabilized)”, 3.37.
In the case of “UniProt P51812 (effect direction: stabilized)”, the pEC50 amounted to 3.89.
Under “UniProt P52434 (effect direction: stabilized)” stands below 2.7; under “UniProt P60842 (effect direction: stabilized)”, 3.47; under “UniProt P60891 (effect direction: stabilized)”, 3.
Under “UniProt P61163 (effect direction: stabilized)” stands 3.1.
Under “UniProt P61254 (effect direction: destabilized)” stands below 2.7; under “UniProt P61353 (effect direction: destabilized)”, above 5.3.
“UniProt P61513 (effect direction: destabilized)”: the pEC50 stood at 3.27.
As for “UniProt P61956 (effect direction: destabilized)”, the pEC50 came to 3.07.
Consider “UniProt P62081 (effect direction: destabilized)”, for which the pEC50 came to 3.68.
Under “UniProt P62191 (effect direction: stabilized)” stands 4.55; under “UniProt P62195 (effect direction: stabilized)”, 4.18; under “UniProt P62241 (effect direction: destabilized)”, 3.14.
Under “UniProt P62263 (effect direction: destabilized)” stands 2.97; under “UniProt P62266 (effect direction: destabilized)”, 3.33; under “UniProt P62269 (effect direction: destabilized)”, below 2.7.
On to “UniProt P62277 (effect direction: destabilized)”, for which the pEC50 was 3.88.
Next, “UniProt P62280 (effect direction: destabilized)”: 4.05; “UniProt P62308 (effect direction: destabilized)”: 2.78.
With “UniProt P62316 (effect direction: destabilized)”, the pEC50 was below 2.7.
Next, “UniProt P62318 (effect direction: destabilized)”: below 2.7; “UniProt P62495 (effect direction: stabilized)”: below 2.7.
Turning to “UniProt P62753 (effect direction: destabilized)”, the pEC50 stood at 3.15.
Regarding “UniProt P62826 (effect direction: destabilized)”, the negative logarithm of the EC50 (pEC50) was 3.01.
Next, “UniProt P62841 (effect direction: destabilized)”: 2.99; “UniProt P62847 (effect direction: destabilized)”: 4.16.
Under “UniProt P62899 (effect direction: destabilized)” stands 3; under “UniProt P68400 (effect direction: stabilized)”, 4.09.
For the target “UniProt P68431 (effect direction: stabilized)”, the pEC50 stood at 2.79.
Next, “UniProt P78356 (effect direction: stabilized)”: 2.83; “UniProt P83731 (effect direction: destabilized)”: 3.11.
Under “UniProt P84085 (effect direction: destabilized)” stands below 2.7; under “UniProt P84095 (effect direction: destabilized)”, 3.01.
Under “UniProt P84098 (effect direction: destabilized)” stands 2.89; under “UniProt Q5JUR7 (effect direction: stabilized)”, 3.36.
As for “UniProt Q5VZE5 (effect direction: stabilized)”, the pEC50 is 2.92.
Next, “UniProt Q6ZUM4 (effect direction: stabilized)”: 3.74; “UniProt Q7L9L4 (effect direction: stabilized)”: 2.98.
Under “UniProt Q7Z2Z2 (effect direction: stabilized)” stands 2.78.
“UniProt Q7Z3D6 (effect direction: destabilized)”: the pEC50 worked out at 2.79.
Under “UniProt Q8N1G2 (effect direction: stabilized)” stands 3.14; under “UniProt Q8N2M8 (effect direction: stabilized)”, below 2.7.
Under “UniProt Q8N4C8 (effect direction: stabilized)” stands 3.74; under “UniProt Q8N9R8 (effect direction: stabilized)”, 3.01; under “UniProt Q8N163 (effect direction: stabilized)”, 2.9.
Under “UniProt Q8NBU5 (effect direction: stabilized)” stands 3.06; under “UniProt Q8NI60 (effect direction: stabilized)”, 3.73; under “UniProt Q8TBX8 (effect direction: stabilized)”, 3.04.
For “UniProt Q8WXA9 (effect direction: stabilized)”, the pEC50 is 3.39.
“UniProt Q8WYJ6 (effect direction: stabilized)”: the negative logarithm of the EC50 (pEC50) was below 2.7.
For the target “UniProt Q9BQ61 (effect direction: destabilized)”, the negative logarithm of the EC50 (pEC50) was determined as 3.66.
For “UniProt Q9BQ75 (effect direction: stabilized)”, the pEC50 is below 2.7.
For “UniProt Q9BSJ8 (effect direction: stabilized)”, the pEC50 was 3.08.
Next, “UniProt Q9BXW7 (effect direction: destabilized)”: 3.84; “UniProt Q9BY42 (effect direction: destabilized)”: 3.25; “UniProt Q9HCP0 (effect direction: stabilized)”: 3.72.
Next, “UniProt Q9NQ88 (effect direction: stabilized)”: 3.46; “UniProt Q9NQG6 (effect direction: stabilized)”: 3.74.
For the target “UniProt Q9NYL2 (effect direction: stabilized)”, the negative logarithm of the EC50 (pEC50) is 3.65.
Next, “UniProt Q9NYV4 (effect direction: stabilized)”: 2.75; “UniProt Q9NZM5 (effect direction: destabilized)”: 2.72.
As to “UniProt Q9P289 (effect direction: stabilized)”, the negative-log EC50 (pEC50) worked out at 3.21.
Under “UniProt Q9UBD5 (effect direction: stabilized)” stands 3.47.
On to “UniProt Q9UH99 (effect direction: stabilized)”, for which the pEC50 came to 3.34.

As a reminder, the pEC50 is the EC50 on a negative log10 scale, so that one unit is a factor of ten.
